Where two headings read alike, the source gives them in different places.
Legend:
ROCK1 = biological target: T1, ROCK1 (Homo sapiens, UniProt Q13464); test: ROCK1 kinase binding affinity, DiscoverX KINOMEscan KdELECT; conditions: equilibrium dissociation constant, 11-point 3-fold dilution series
T1 construct: purchased DiscoverX (KINOMEscan KdELECT service); host or cells: E. coli BL21-derived (T7 phage) or HEK-293
Protocol: (§1) 1. ROCK1 and ROCK2 kinase assays: The ROCK1 and ROCK2 kinase binding affinities of compounds in this invention were determined by DiscoverX's KINOMEscan™ KdELECT technology (https://www.discoverx.com/kinomescan-elect-kinase-screening-and-profiling-services): Kinase-tagged T7 phage strains were prepared in an E. coli host derived from the BL21 strain. E. coli were grown to log-phase and infected with T7 phage and incubated with shaking at 32° C. until lysis. The lysates were centrifuged and filtered to remove cell debris. The remaining kinases were produced in HEK-293 cells and subsequently tagged with DNA for qPCR detection. Streptavidin-coated magnetic beads were treated with biotinylated small molecule ligands for 30 minutes at room temperature to generate affinity resins for kinase assays. The liganded beads were blocked with excess biotin and washed with blocking buffer (SeaBlock (Pierce), 1% BSA, 0.05% Tween 20, 1 mM DTT) to remove unbound ligand and to reduce nonspecific binding. […] Test compounds were prepared as 111X stocks in 100% DMSO. Kds were determined using an 11-point 3-fold compound dilution series with three DMSO control points. […] The compounds were then diluted directly into the assays such that the final concentration of DMSO was 0.9%. All reactions performed in polypropylene 384-well plate. Each was a final volume of 0.02 ml. […] The kinase concentration in the eluates was measured by qPCR.

ROCK2 = biological target: T2, ROCK2 (Homo sapiens, UniProt O75116); test: ROCK2 kinase binding affinity, DiscoverX KINOMEscan KdELECT; conditions: for ROCK 2 Selectivity: ROCK2 over ROCK1, from Kd values, N/C = not calculated
T2 construct: purchased DiscoverX (KINOMEscan KdELECT service); host or cells: E. coli BL21-derived (T7 phage) or HEK-293
Protocol: as §1

[1] = equilibrium dissociation constant, 11-point 3-fold dilution series, read-out: Kd (μM) ROCK2

T1 sequence (Q13464 whole entry): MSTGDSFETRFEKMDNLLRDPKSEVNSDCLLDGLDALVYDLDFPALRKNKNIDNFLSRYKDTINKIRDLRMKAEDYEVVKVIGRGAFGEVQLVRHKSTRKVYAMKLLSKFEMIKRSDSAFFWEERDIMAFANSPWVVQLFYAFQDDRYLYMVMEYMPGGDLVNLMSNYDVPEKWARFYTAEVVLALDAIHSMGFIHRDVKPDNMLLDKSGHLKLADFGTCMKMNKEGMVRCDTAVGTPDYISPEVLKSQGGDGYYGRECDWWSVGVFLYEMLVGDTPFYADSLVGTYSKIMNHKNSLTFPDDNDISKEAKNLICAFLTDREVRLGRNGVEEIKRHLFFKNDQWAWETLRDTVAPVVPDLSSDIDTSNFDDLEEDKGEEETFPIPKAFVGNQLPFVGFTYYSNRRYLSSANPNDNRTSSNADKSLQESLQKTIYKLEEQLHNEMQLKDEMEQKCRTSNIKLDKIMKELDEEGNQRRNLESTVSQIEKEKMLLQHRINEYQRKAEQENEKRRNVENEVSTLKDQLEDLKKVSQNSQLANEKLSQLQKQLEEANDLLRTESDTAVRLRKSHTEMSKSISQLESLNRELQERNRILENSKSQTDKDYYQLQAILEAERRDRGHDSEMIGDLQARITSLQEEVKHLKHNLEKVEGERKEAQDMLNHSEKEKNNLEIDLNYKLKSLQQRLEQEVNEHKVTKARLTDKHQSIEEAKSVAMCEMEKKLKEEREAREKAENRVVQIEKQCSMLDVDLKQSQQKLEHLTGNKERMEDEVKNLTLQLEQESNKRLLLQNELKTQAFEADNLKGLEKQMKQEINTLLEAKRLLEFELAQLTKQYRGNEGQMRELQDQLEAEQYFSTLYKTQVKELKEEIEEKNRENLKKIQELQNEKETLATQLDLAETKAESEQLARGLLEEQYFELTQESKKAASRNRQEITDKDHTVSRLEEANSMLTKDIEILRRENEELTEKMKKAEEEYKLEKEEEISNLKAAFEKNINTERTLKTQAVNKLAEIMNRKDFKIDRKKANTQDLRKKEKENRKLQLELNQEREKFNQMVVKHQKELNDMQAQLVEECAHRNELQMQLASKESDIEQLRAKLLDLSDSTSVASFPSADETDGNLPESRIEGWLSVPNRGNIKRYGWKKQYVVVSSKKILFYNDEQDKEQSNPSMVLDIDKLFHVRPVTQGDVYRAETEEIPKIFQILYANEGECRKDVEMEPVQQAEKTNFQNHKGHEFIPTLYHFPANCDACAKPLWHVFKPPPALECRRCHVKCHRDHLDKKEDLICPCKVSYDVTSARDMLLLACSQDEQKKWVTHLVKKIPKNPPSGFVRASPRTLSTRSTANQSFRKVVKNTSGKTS
T2 sequence (O75116 whole entry): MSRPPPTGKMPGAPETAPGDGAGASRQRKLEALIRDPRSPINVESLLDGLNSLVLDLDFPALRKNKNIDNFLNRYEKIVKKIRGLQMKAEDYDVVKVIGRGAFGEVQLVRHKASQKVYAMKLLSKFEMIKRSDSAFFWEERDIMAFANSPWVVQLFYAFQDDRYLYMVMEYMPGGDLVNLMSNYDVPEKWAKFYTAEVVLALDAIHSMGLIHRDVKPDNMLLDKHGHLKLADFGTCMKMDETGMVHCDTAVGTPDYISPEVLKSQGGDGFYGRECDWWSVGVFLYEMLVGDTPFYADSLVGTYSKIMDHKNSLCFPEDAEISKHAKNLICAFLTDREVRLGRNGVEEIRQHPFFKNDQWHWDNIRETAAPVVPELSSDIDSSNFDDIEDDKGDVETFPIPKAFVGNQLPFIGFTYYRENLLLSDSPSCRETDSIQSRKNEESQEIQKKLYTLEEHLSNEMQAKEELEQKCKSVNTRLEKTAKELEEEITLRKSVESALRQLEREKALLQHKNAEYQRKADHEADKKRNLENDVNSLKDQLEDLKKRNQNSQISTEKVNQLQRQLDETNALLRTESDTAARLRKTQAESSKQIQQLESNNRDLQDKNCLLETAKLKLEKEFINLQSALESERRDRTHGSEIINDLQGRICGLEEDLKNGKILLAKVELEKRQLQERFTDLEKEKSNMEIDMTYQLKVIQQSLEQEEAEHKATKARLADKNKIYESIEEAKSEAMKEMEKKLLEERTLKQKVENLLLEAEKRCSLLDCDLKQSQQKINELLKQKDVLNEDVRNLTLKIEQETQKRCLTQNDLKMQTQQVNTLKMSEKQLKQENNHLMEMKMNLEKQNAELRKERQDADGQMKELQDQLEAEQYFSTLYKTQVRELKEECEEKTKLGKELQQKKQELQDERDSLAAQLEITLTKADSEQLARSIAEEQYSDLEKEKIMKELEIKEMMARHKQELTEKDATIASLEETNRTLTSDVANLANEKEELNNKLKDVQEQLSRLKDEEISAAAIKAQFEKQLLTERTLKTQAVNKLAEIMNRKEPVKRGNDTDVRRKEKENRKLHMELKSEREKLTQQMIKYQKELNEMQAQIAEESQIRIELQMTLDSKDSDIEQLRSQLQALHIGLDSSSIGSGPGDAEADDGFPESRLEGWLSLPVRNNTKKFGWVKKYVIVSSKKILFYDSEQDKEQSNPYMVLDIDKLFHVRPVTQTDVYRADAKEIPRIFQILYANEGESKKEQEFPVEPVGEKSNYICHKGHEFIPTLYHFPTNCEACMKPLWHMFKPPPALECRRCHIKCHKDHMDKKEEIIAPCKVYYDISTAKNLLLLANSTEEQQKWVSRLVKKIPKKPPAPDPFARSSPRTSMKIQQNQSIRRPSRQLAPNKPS

COc1ccc2c(c1)CN(c1nccc(-c3nccc(C#Cc4ccncc4)n3)n1)C2 [Ex. 1, 5-Methoxy-2-(4-(pyridin-4-ylethynyl)-[2,4′-bipyrimidin]-2′-yl)isoindoline]
Kd (ROCK1): > 30 µM
Kd (ROCK2; [1]): > 30 µM

COc1ccc2c(c1)CN(c1nccc(-c3nccc(C#Cc4cn[nH]c4)n3)n1)C2 [Ex. 2, 2-(4-((1H-Pyrazol-4-yl)ethynyl)-[2,4′-bipyrimidin]-2′-yl)-5-methoxyisoindoline]
Kd (ROCK1): > 30 µM
Kd (ROCK2; [1]): > 30 µM

COc1ccc2c(c1)CN(c1nccc(-c3nccc(C#Cc4ccc5[nH]ncc5c4)n3)n1)C2 [Ex. 3, 5-((2′-(5-Methoxyisoindolin-2-yl)-[2,4′-bipyrimidin]-4-yl)ethynyl)-1H-indazole]
Kd (ROCK1): 0.82 µM
ROCK 2 Selectivity (ROCK2): 119
Kd (ROCK2; [1]): 0.0069 µM

COc1ccc2c(c1)CN(c1nccc(-c3nccc(C#Cc4ccc5c(N)nccc5c4)n3)n1)C2 [Ex. 4, 6-((2′-(5-Methoxyisoindolin-2-yl)-[2,4′-bipyrimidin]-4-yl)ethynyl)isoquinolin-1-amine]
Kd (ROCK1): > 30 µM
ROCK 2 Selectivity (ROCK2): >3.66
Kd (ROCK2; [1]): 8.2 µM

COc1ccc2c(c1)CN(c1nccc(-c3nccc(C#Cc4ccc5[nH]nc(F)c5c4)n3)n1)C2 [Ex. 5, 3-Fluoro-5-((2′-(5-methoxyisoindolin-2-yl)-[2,4′-bipyrimidin]-4-yl)ethynyl)-1H-indazole]
Kd (ROCK1): > 30 µM
ROCK 2 Selectivity (ROCK2): >1500
Kd (ROCK2; [1]): 0.02 µM

COc1ccc2c(c1)CN(c1nccc(-c3nccc(C#Cc4cc(F)c5[nH]ncc5c4)n3)n1)C2 [Ex. 6, 7-Fluoro-5-((2′-(5-methoxyisoindolin-2-yl)-[2,4′-bipyrimidin]-4-yl)ethynyl)-1H-indazole]
Kd (ROCK1): 29 µM
ROCK 2 Selectivity (ROCK2): 2417
Kd (ROCK2; [1]): 0.012 µM

COc1ccc2c(c1)CN(c1nccc(-c3nccc(C#Cc4ccc5c(c4)CNC5=O)n3)n1)C2 [Ex. 7, 5-((2′-(5-Methoxyisoindolin-2-yl)-[2,4′-bipyrimidin]-4-yl)ethynyl)isoindolin-1-one]
Kd (ROCK1): > 30 µM
Kd (ROCK2; [1]): > 30 µM

COC(=O)c1ccc(C#Cc2ccnc(-c3ccnc(N4Cc5ccc(OC)cc5C4)n3)n2)cc1 [Ex. 8, Methyl 4-((2′-(5-methoxyisoindolin-2-yl)-[2,4′-bipyrimidin]-4-yl)ethynyl)benzoate]
Kd (ROCK1): > 30 µM
Kd (ROCK2; [1]): > 30 µM

COc1ccc2c(c1)CN(c1nccc(-c3nccc(C#Cc4ccc(C#N)cc4)n3)n1)C2 [Ex. 9, 4-((2′-(5-Methoxyisoindolin-2-yl)-[2,4′-bipyrimidin]-4-yl)ethynyl)benzonitrile]
Kd (ROCK1): > 30 µM
Kd (ROCK2; [1]): > 30 µM

COc1ccc2c(c1)CN(c1nccc(-c3nccc(C#Cc4ccc(C(=O)O)cc4)n3)n1)C2 [Ex. 10, 4-((2′-(5-Methoxyisoindolin-2-yl)-[2,4′-bipyrimidin]-4-yl)ethynyl)benzoic acid]
Kd (ROCK1): > 30 µM
Kd (ROCK2; [1]): > 30 µM

CNC(=O)c1ccc(C#Cc2ccnc(-c3ccnc(N4Cc5ccc(OC)cc5C4)n3)n2)cc1 [Ex. 11, 4-((2′-(5-Methoxyisoindolin-2-yl)-[2,4′-bipyrimidin]-4-yl)ethynyl)-N-methylbenzamide]
Kd (ROCK1): > 30 µM
Kd (ROCK2; [1]): > 30 µM

C(#Cc1ccnc(-c2ccnc(N3Cc4ccccc4C3)n2)n1)c1ccc2[nH]ncc2c1 [Ex. 12, 5-((2′-(Isoindolin-2-yl)-[2,4′-bipyrimidin]-4-yl)ethynyl)-1H-indazole]
Kd (ROCK1): 0.25 µM
ROCK 2 Selectivity (ROCK2): 139
Kd (ROCK2; [1]): 0.0018 µM

Fc1ccc2c(c1)CN(c1nccc(-c3nccc(C#Cc4ccc5[nH]ncc5c4)n3)n1)C2 [Ex. 13, 5-((2′-(5-Fluoroisoindolin-2-yl)-[2,4′-bipyrimidin]-4-yl)ethynyl)-1H-indazole]
Kd (ROCK1): 9.2 µM
ROCK 2 Selectivity (ROCK2): 1164
Kd (ROCK2; [1]): 0.0079 µM

Fc1ccc2c(c1)CN(c1nccc(-c3nccc(C#Cc4cc(F)c5[nH]ncc5c4)n3)n1)C2 [Ex. 14, 7-Fluoro-5-((2′-(5-fluoroisoindolin-2-yl)-[2,4′-bipyrimidin]-4-yl)ethynyl)-1H-indazole]
Kd (ROCK1): > 30 µM
ROCK 2 Selectivity (ROCK2): >1071
Kd (ROCK2; [1]): 0.028 µM

COc1cc2c(cn1)CN(c1nccc(-c3nccc(C#Cc4ccc5[nH]ncc5c4)n3)n1)C2 [Ex. 15, 5-((2′-(6-Methoxy-1,3-dihydro-2H-pyrrolo[3,4-c]pyridin-2-yl)-[2,4′-bipyrimidin]-4-yl)ethynyl)-1H-indazole]
Kd (ROCK1): > 6 µM
ROCK 2 Selectivity (ROCK2): >35
Kd (ROCK2; [1]): 0.17 µM

Oc1cc2c(cn1)CN(c1nccc(-c3nccc(C#Cc4ccc5[nH]ncc5c4)n3)n1)C2 [Ex. 16, 2-(4-((1H-Indazol-5-yl)ethynyl)-[2,4′-bipyrimidin]-2′-yl)-2,3-dihydro-1H-pyrrolo[3,4-c]pyridin-6-ol]
Kd (ROCK1): > 6 µM
ROCK 2 Selectivity (ROCK2): >23
Kd (ROCK2; [1]): 0.26 µM

Clc1cc2c(cn1)CN(c1nccc(-c3nccc(C#Cc4ccc5[nH]ncc5c4)n3)n1)C2 [Ex. 17, 5-((2′-(6-Chloro-1,3-dihydro-2H-pyrrolo[3,4-c]pyridin-2-yl)-[2,4′-bipyrimidin]-4-yl)ethynyl)-1H-indazole]
Kd (ROCK1): > 6 µM
ROCK 2 Selectivity (ROCK2): >122
Kd (ROCK2; [1]): 0.049 µM

COc1ccc2c(c1)CN(c1nccc(-c3cccc(C#Cc4ccc5[nH]ncc5c4)n3)n1)C2 [Ex. 18, 5-((6-(2-(5-Methoxyisoindolin-2-yl)pyrimidin-4-yl)pyridin-2-yl)ethynyl)-1H-indazole]
Kd (ROCK1): 25 µM
Kd (ROCK2; [1]): 0.12 µM

COc1ccc2c(c1)CN(c1nccc(-c3cccc(C#Cc4cc(F)c5[nH]ncc5c4)n3)n1)C2 [Ex. 19, 7-Fluoro-5-((6-(2-(5-methoxyisoindolin-2-yl)pyrimidin-4-yl)pyridin-2-yl)ethynyl)-1H-indazole]
Kd (ROCK1): > 30 µM
Kd (ROCK2): 2.8 µM
ROCK 2 Selectivity (ROCK2): >10.7

Fc1ccc2c(c1)CN(c1nccc(-c3cccc(C#Cc4ccc5[nH]ncc5c4)n3)n1)C2 [Ex. 20, 5-((6-(2-(5-Fluoroisoindolin-2-yl)pyrimidin-4-yl)pyridin-2-yl)ethynyl)-1H-indazole]
Kd (ROCK1): > 30 µM
ROCK 2 Selectivity (ROCK2): >5.4
Kd (ROCK2; [1]): 5.5 µM

Fc1ccc2c(c1)CN(c1nccc(-c3cccc(C#Cc4cc(F)c5[nH]ncc5c4)n3)n1)C2 [Ex. 21, 7-Fluoro-5-((6-(2-(5-fluoroisoindolin-2-yl)pyrimidin-4-yl)pyridin-2-yl)ethynyl)-1H-indazole]
Kd (ROCK1): > 30 µM
Kd (ROCK2): 6.8 µM
ROCK 2 Selectivity (ROCK2): >4.4

CN(C)CCOc1ccc2c(c1)CN(c1nccc(-c3cccc(C#Cc4ccc5[nH]ncc5c4)n3)n1)C2 [Ex. 22, 2-((2-(4-(6-((1H-Indazol-5-yl)ethynyl)pyridin-2-yl)pyrimidin-2-yl)isoindolin-5-yl)oxy)-N,N-dimethylethanamine]
Kd (ROCK1): > 30 µM
ROCK 2 Selectivity (ROCK2): >20
Kd (ROCK2; [1]): 1.5 µM

CN1CCN(c2ccc3c(c2)CN(c2nccc(-c4cccc(C#Cc5ccc6[nH]ncc6c5)n4)n2)C3)CC1 [Ex. 23, 5-((6-(2-(5-(4-Methylpiperazin-1-yl)isoindolin-2-yl)pyrimidin-4-yl)pyridin-2-yl)ethynyl)-1H-indazole]
Kd (ROCK1): > 30 µM
ROCK 2 Selectivity (ROCK2): >45
Kd (ROCK2; [1]): 0.66 µM

COc1ccc2c(c1)CN(c1nccc(-c3cc(F)cc(C#Cc4ccc5[nH]ncc5c4)c3)n1)C2 [Ex. 24, 5-((3-Fluoro-5-(2-(5-methoxyisoindolin-2-yl)pyrimidin-4-yl)phenyl)ethynyl)-1H-indazole]
Kd (ROCK1): > 30 µM
Kd (ROCK2; [1]): > 30 µM

Fc1cc(C#Cc2ccc3[nH]ncc3c2)cc(-c2ccnc(N3Cc4ccc(F)cc4C3)n2)c1 [Ex. 25, 5-((3-Fluoro-5-(2-(5-fluoroisoindolin-2-yl)pyrimidin-4-yl)phenyl)ethynyl)-1H-indazole]
Kd (ROCK1): > 30 µM
Kd (ROCK2; [1]): > 30 µM

Fc1cc(C#Cc2ccc3[nH]ncc3c2)cc(-c2ccnc(N3Cc4ccc(Cl)cc4C3)n2)c1 [Ex. 26, 5-((3-(2-(5-Chloroisoindolin-2-yl)pyrimidin-4-yl)-5-fluorophenyl)ethynyl)-1H-indazole]
Kd (ROCK1): > 30 µM
ROCK 2 Selectivity (ROCK2): >6.67
Kd (ROCK2; [1]): 4.5 µM

Fc1cc(C#Cc2ccc3[nH]ncc3c2)cc(-c2ccnc(N3Cc4ccc(Br)cc4C3)n2)c1 [Ex. 27, 5-((3-(2-(5-Bromoisoindolin-2-yl)pyrimidin-4-yl)-5-fluorophenyl)ethynyl)-1H-indazole]
Kd (ROCK1): > 30 µM
Kd (ROCK2; [1]): > 30 µM

CN(C)CCOc1ccc2c(c1)CN(c1nccc(-c3cc(F)cc(C#Cc4ccc5[nH]ncc5c4)c3)n1)C2 [Ex. 28, 2-((2-(4-(3-((1H-Indazol-5-yl)ethynyl)-5-fluorophenyl)pyrimidin-2-yl)isoindolin-5-yl)oxy)-N,N-dimethylethanamine]
Kd (ROCK1): > 30 µM
Kd (ROCK2; [1]): > 30 µM

CN1CCN(c2ccc3c(c2)CN(c2nccc(-c4cc(F)cc(C#Cc5ccc6[nH]ncc6c5)c4)n2)C3)CC1 [Ex. 29, 5-((3-Fluoro-5-(2-(5-(4-methylpiperazin-1-yl)isoindolin-2-yl)pyrimidin-4-yl)phenyl)ethynyl)-1H-indazole]
Kd (ROCK1): > 30 µM
Kd (ROCK2; [1]): > 30 µM

Reference: patent US20220281841A1, “ETHYNYLHETEROCYCLES AS RHO-ASSOCIATED COILED-COIL KINASE (ROCK) INHIBITORS” (Angion Biomedica Corp., priority 2019, published 2022)
